Values quoted from earlier work as cited in publication PMC9924909 (Brain, 2022).
Like-named read-outs stand apart in the source and are kept apart here.

Key:
[1] = cited from earlier work
patients with GD3 = conditions: cited from earlier work

| SMILES | distribution to the brain [1] | effect on neurological symptoms (patients with GD3) | effect on neurological symptoms (patients with GD3; listed as miglustat) |
| --- | --- | --- | --- |
| CCCCN1C[C@H](O)[C@@H](O)[C@H](O)[C@H]1CO [Miglustat] | partially distributed to the brain | ineffective for neurological symptoms | no clinical benefit |
| CCCCCCCC(=O)N[C@H](CN1CCCC1)[C@H](O)c1ccc2c(c1)OCCO2 [Eliglustat] | excluded from the brain |  |  |
